Data set [1] can be described thus: Thermal degradation by thermogravimetric analysis (TGA). It is filed as physicochemical. To be noted: TGA in nitrogen gas at 20° C./min (n=3). The method, then: According to an embodiment, aromatic polyether-based medical grade thermoplastic polyurethane (TPU) pellets can be mixed with and without IRDye 800CW to form TPU Composite and Plain TPU using a hydraulic platen press. […] The temperature at which the samples begin to decrease sharply in weight is determined to be their degradation point. According to an embodiment, thermal degradation temperatures are evaluated using a Q50 Thermogravimetric Analyzer (TGA), wherein the analysis is conducted in nitrogen gas at 20° C./min (n=3), where n is the number of times the experiment has been performed.
Furthermore, the degradation temperatures are considerably higher than the processing temperature of TPU (195° C.).

A short description of data set [2]: Stability of IRDye 800CW fluorescent signal in PBS at 37° C. It counts as physicochemical. The note with it: PBS at 37° C. with gentle agitation, 12 days. Here is the method:
According to another embodiment of the disclosure, in order to determine the long-term effect of being implanted in vivo, catheters are leached in phosphate buffered saline powder (PBS) for 23 days to determine the amount of dye retained within the matrix. TPU Composite tubes are cut into thin slices, weighed, and added to a black 96 well plate containing 200 μl PBS. Leaching of IRDye 800CW from the TPU Composite (n=8) is analyzed under physiological conditions (pH ˜7.4, 37° C., with gentle agitation) in a water bath. The water bath is covered to prevent photo-bleaching. Each day, tubes can be transferred to the successive well containing PBS, and the previous day is analyzed using a micro-plate reader with excitation at 765 nm, emission at 794 nm and a sensitivity of 100. […] Further, to determine the amount of IRDye 800CW retained, a calibration curve containing serial dilutions of IRDye 800CW in PBS is used (0 to 0.00030 wt %) (R^2=0.99). Additionally, 10 mL of IRDye 800CW in PBS is placed in the water bath and 100 μL aliquots are analyzed per day for signs of signal degradation due to heat.
The retention analysis of IR Dye 800 CW within TPU matrix of FIG. 17 includes a 6.35% of the IR Dye 800 CW being released from the polymer over 23 days. […]

Data set [3] relates to Human Umbilical Vein Endothelial (HUVEC) cells. Description: Biocompatibility (toxicity) in direct contact with endothelial cells, alamar blue and Calcein AM/propidium iodide. It is filed as cell-based. Here is the method:
According to another embodiment of disclosure, biocompatibility studies are conducted to determine the toxicity of TPU Composite in direct contact with endothelial cells as well as the adhesion of endothelial cells to the TPU Composite. Pressed films (Plain TPU and TPU Composite) are sterilized by washing in 1×PBS for 24 hours under constant agitation, followed by a 30 minute soak in 100% ethanol and two 1 hour rinses with PBS. Biocompatibility studies include 12 well cell bind plates being seeded with Human Umbilical Vein Endothelial (HUVEC) cells (passage 4-10, cultured in complete endothelial growth medium EGM Bulletkit, LONZA) at a density of 100 cells/cm^2 for 12 hours to allow for adhesion [37° C., 5% CO2]. Films (19 mm) are placed in direct contact to the cells and incubated for an additional 72 hours, replacing media daily. Toxicity is quantitatively analyzed with alamar blue according to manufacturer's protocol. Briefly, 100 μL of alamar blue is added to the media and allowed to incubate for 1.5 hours. Fluorescence of each alamar blue was read at excitation 545 nm, emission 590 nm. Films are removed from wells and cells are stained with Calcein AM and propidium iodide according to manufacturer's protocol, fixed with 4% paraformaldehyde for 1 hour and rinsed three times with PBS for qualitative analysis of cell death. Cells are imaged with fluorescent confocal imaging (Zeiss) for proliferation, morphology changes and viability. The process is repeated with 0.025 wt % IRDye 800CW in media, cells with media as a positive control, and cells with 70% ethanol in media as a negative control.

For data set [4] the test system is unchanged. Kind of data set: Endothelial cell adhesion to films. It is filed as cell-based. The note with it: HUVECs seeded on films, one hour, Calcein AM/propidium iodide. The method, then:
To determine if endothelial cells bind to the catheters, 19 mm films are cut and affixed to the bottom of suspension 12-well culture plates with 50 μL of 10 mg/mL collagen Type I isolated from rat tails. Plates are incubated for 30 minutes to allow for collagen polymerization. Films are seeded with 100 cells/cm^2 and incubated for one hour. Wells are washed with PBS to remove non-adherent cells and stained with Calcein AM and propidium iodide to aid in visualization of cell binding. The number and cell health of adherent cells is analyzed with fluorescence microscopy and compared to positive (collagen plates) and negative (Teflon) controls.
In order to be a viable biomaterial, cell adhesion should be minimal in order to avoid excess damage when removing or inserting the PICC.

The text below walks through data of US20150087969A1, “SYSTEMS AND METHODS FOR OPTICALLY GUIDED PLACEMENT AND MONITORING OF MEDICAL IMPLANTS” (Children's National Medical Center, priority 2013, published 2015).

`CC1(C)C(=CC=C2CCCC(C=CC3=[N+](CCCCCC(=O)[O-])c4ccc(S(=O)(=O)[O-])cc4C3(C)C)=C2Oc2ccc(S(=O)(=O)[O-])cc2)N(CCCCS(=O)(=O)[O-])c2ccc(S(=O)(=O)[O-])cc21.[Na+].[Na+].[Na+].[Na+]` [IRDye 800CW] had a thermal degradation temperature in data set [1] of 308±10 °C. Besides, the “fluorescent signal stability in PBS” value in data set [2] is recorded as “no observed decrease in the fluorescent signal”. Besides, in data set [3] (0.025 wt % in media, HUVECs, 72 hours, alamar blue, normalized to media control), the “Normalized Viability” value is given as 91.27 ± 8.54. In addition, the “cell viability (statistics)” value in data set [3] (72 hour incubation of HUVECs, IRDye 800CW at 0.025 wt %) is on record as “no statistical difference”. For the same compound, the “cell morphology or proliferation rates” value in data set [3] (Calcein AM and Propidium Iodide staining, HUVECs) was “no apparent change”.

Consider “Collagen I: collagen Type I isolated from rat tails, positive control for cell adhesion”, for which the “cell adherence (qualitative, cell shape)” value in data set [4] is “preferentially adhered”.
